#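 Grown in 96-well plates, cells were treated for 48 hours with each compound at five concentrations. Insufficient inhibition: endpoint recorded as highest concentration tested. GI50 is the concentration that inhibits growth by half. TGI: concentration producing complete growth inhibition.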
# How the values were obtained:
# Assay in all cases: inhibition of tumour cell growth, NCI panel, 48 h
# [1] = tested on: 786-0 renal
# [2] = tested on: A498 renal
# [3] = tested on: A549 NSCLC
# [4] = tested on: ACHN renal
# [5] = tested on: BT-549 breast
# [6] = tested on: CAKI-1 renal
# [7] = tested on: CCRF-CEM leukemia
# [8] = tested on: COLO 205 colon
# [9] = tested on: DU-145 prostate
# [10] = tested on: EKVX NSCLC
# [11] = tested on: HCC-2998 colon
# [12] = tested on: HCT-116 colon
# [13] = tested on: HCT-15 colon
# [14] = tested on: HL-60(TB) leukemia
# [15] = tested on: HOP-62 NSCLC
# [16] = tested on: HOP-92 NSCLC
# [17] = tested on: HS 578T breast
# [18] = tested on: HT29 colon
# [19] = tested on: IGROV1 ovarian
# [20] = tested on: K-562 leukemia
# [21] = tested on: KM12 colon
# [22] = tested on: LOX IMVI melanoma
# [23] = tested on: M14 melanoma
# [24] = tested on: MALME-3M melanoma
# [25] = tested on: MCF7 breast
# [26] = tested on: MDA-MB-231 breast
# [27] = tested on: MDA-MB-435
# [28] = tested on: MOLT-4 leukemia
# [29] = tested on: NCI-H226 lung
# [30] = tested on: NCI-H23 lung
# [31] = tested on: NCI-H460 lung
# [32] = tested on: NCI-H522 lung
# [33] = tested on: NCI/ADR-RES ovarian
# [34] = tested on: OVCAR-3 ovarian
# [35] = tested on: OVCAR-5 ovarian
# [36] = tested on: OVCAR-8 ovarian
# [37] = tested on: PC-3 prostate
# [38] = tested on: RPMI-8226 leukemia
# [39] = tested on: RXF 393 renal
# [40] = tested on: SF-268 CNS
# [41] = tested on: SF-295 CNS
# [42] = tested on: SF-539 CNS
# [43] = tested on: SK-MEL-2 melanoma
# [44] = tested on: SK-MEL-28 melanoma
# [45] = tested on: SK-MEL-5 melanoma
# [46] = tested on: SK-OV-3 ovarian
# [47] = tested on: SN12C renal
# [48] = tested on: SNB-19 CNS
# [49] = tested on: SNB-75 CNS
# [50] = tested on: SR leukemia
# [51] = tested on: SW-620 colon
# [52] = tested on: T-47D breast
# [53] = tested on: TK-10 renal
# [54] = tested on: U251 CNS
# [55] = tested on: UACC-257 melanoma
# [56] = tested on: UACC-62 melanoma
# [57] = tested on: UO-31 renal
smiles,measurement,setting,value
Cn1ccc(=Nc2ccc(NC(=O)c3ccc(N=c4ccn(C)c5ccc([N+](=O)[O-])cc45)cc3)cc2)cc1,GI50,[1],56.1 µM
same,TGI,[1],> 100 µM
same,GI50,[2],> 100 µM
same,TGI,[2],> 100 µM
same,GI50,[3],7.31 µM
same,TGI,[3],> 100 µM
same,GI50,[4],> 100 µM
same,TGI,[4],> 100 µM
same,GI50,[5],71.5 µM
same,TGI,[5],> 100 µM
same,GI50,[6],> 100 µM
same,TGI,[6],> 100 µM
same,GI50,[7],> 100 µM
same,TGI,[7],> 100 µM
same,GI50,[8],3.94 µM
same,TGI,[8],> 100 µM
same,GI50,[9],4.43 µM
same,TGI,[9],> 100 µM
same,GI50,[10],55.1 µM
same,TGI,[10],> 100 µM
same,GI50,[11],3.85 µM
same,TGI,[11],> 100 µM
same,GI50,[12],3.76 µM
same,TGI,[12],> 100 µM
same,GI50,[13],> 100 µM
same,TGI,[13],> 100 µM
same,GI50,[14],5.34 µM
same,TGI,[14],> 100 µM
same,GI50,[15],8.25 µM
same,TGI,[15],> 100 µM
same,GI50,[16],42.4 µM
same,TGI,[16],> 100 µM
same,GI50,[17],16.4 µM
same,TGI,[17],92.6 µM
same,GI50,[18],7.54 µM
same,TGI,[18],> 100 µM
same,GI50,[19],11.2 µM
same,TGI,[19],> 100 µM
same,GI50,[20],6.75 µM
same,TGI,[20],> 100 µM
same,GI50,[21],7.26 µM
same,TGI,[21],> 100 µM
same,GI50,[22],5.37 µM
same,TGI,[22],> 100 µM
same,GI50,[23],> 100 µM
same,TGI,[23],> 100 µM
same,GI50,[24],2.41 µM
same,TGI,[24],37.9 µM
same,GI50,[25],2.36 µM
same,TGI,[25],> 100 µM
same,GI50,[26],6.82 µM
same,TGI,[26],> 100 µM
same,GI50,[27],6.53 µM
same,TGI,[27],> 100 µM
same,GI50,[28],> 100 µM
same,TGI,[28],> 100 µM
same,GI50,[29],74.3 µM
same,TGI,[29],> 100 µM
same,GI50,[30],43.9 µM
same,TGI,[30],> 100 µM
same,GI50,[31],22.6 µM
same,TGI,[31],> 100 µM
same,GI50,[32],6.88 µM
same,TGI,[32],> 100 µM
same,GI50,[33],> 100 µM
same,TGI,[33],> 100 µM
same,GI50,[34],15.2 µM
same,TGI,[34],78.7 µM
same,GI50,[35],> 100 µM
same,TGI,[35],> 100 µM
same,GI50,[36],> 100 µM
same,TGI,[36],> 100 µM
same,GI50,[37],9.2 µM
same,TGI,[37],> 100 µM
same,GI50,[38],3.54 µM
same,TGI,[38],> 100 µM
same,GI50,[39],21.4 µM
same,TGI,[39],44.6 µM
same,GI50,[40],4.37 µM
same,TGI,[40],98.2 µM
same,GI50,[41],12.8 µM
same,TGI,[41],72.6 µM
same,GI50,[42],6.21 µM
same,TGI,[42],73.2 µM
same,GI50,[43],79.1 µM
same,TGI,[43],> 100 µM
same,GI50,[44],22.9 µM
same,TGI,[44],92.3 µM
same,GI50,[45],20.3 µM
same,TGI,[45],> 100 µM
same,GI50,[46],> 100 µM
same,TGI,[46],> 100 µM
same,GI50,[47],5.09 µM
same,TGI,[47],> 100 µM
same,GI50,[48],0.923 µM
same,TGI,[48],> 100 µM
same,GI50,[49],3.63 µM
same,TGI,[49],28.5 µM
same,GI50,[50],33 µM
same,TGI,[50],> 100 µM
same,GI50,[51],8.6 µM
same,TGI,[51],> 100 µM
same,GI50,[52],5.27 µM
same,TGI,[52],> 100 µM
same,GI50,[53],> 100 µM
same,TGI,[53],> 100 µM
same,GI50,[54],0.437 µM
same,TGI,[54],> 100 µM
same,GI50,[55],12.5 µM
same,TGI,[55],74.5 µM
same,GI50,[56],17.8 µM
same,TGI,[56],> 100 µM
same,GI50,[57],> 100 µM
same,TGI,[57],> 100 µM

# From PubChem BioAssay (NCI)
